What was measured:
Format in all cases: cell-based
U251 GBM cell line = assay: selenite treatment in conjunction with SEPHS2 KO (growth); conditions: 12 uM selenite; growth normalized to SEPHS2 KO cells
Method: FIGS. 2A-D provide evidence that SEPHS2 plays a detoxifying role in U251 GBM cell line. (A) Knockdown of either SEPHS2 or SEPSECS can block selenoprotein expression. (B) However, only SEPHS2 KO has significant toxicity. (C) Model for ‘pushing’ toxicity in which if SEPHS2 plays a detoxifying role, its KO should synergize with increased selenited input. (D) Synergy is indeed seen with 12 uM selenite treatment in conjunction with SEPHS2 KO. Growth is normalized to the already lower growth rate of the SEPHS2 KO cells, thus the bars in asterisks indicate (statistically significant) synergy.
We had classified SEPHS2 as a putative detoxifier as its substrate, selenide, is the most toxic form of selenium^12. The notion of SEPHS2 as a detoxifier has not previously been explored, and SEPHS2 is simply known for its enzymatic role (which cannot be replaced by its isoform, SEPHS1^13) as an intermediate step in producing selenocysteine for selenocysteinyl-tRNA production. The selenocysteine producing pathway is a simple and linear pathway starting from dietary […]—or […] or other inorganic forms which can be converted to selenite, selenite being the most common form^14,15. Selenite is imported and converted through in an unclear manner to form selenide, which is then metabolized by SEPHS2 to form selenophosphate, accompanied by ATP hydrolysis. […]

U251 cells = assay: CRISPR/Cas9 screen of candidate selenium transporters: toxicity of 12 μM selenite; conditions: both guides against SLC7A11, U251 cells
Method: We compared the cells that are sensitive to SEPHS2 KO vs those that are not sensitive to identify key drivers of selenide production. We examined these lines for susceptibility to high, toxic doses of selenite as it is an abundant and bioavailable form of selenium. We observed a strong correlation between susceptibility to high-dose selenite and to SEPHS2 KO (FIG. 4A). […] Two guides per candidate transporter were knocked out in U251 cells and effects on the toxicity of 12 μM selenite were examined.

SLC7A11 = target: T1, SLC7A11 (Homo sapiens, UniProt Q9UPY5); assay: total intracellular selenium levels after selenite supplementation; conditions: knockout of SLC7A11
T1 construct: endogenous in cells
T1 sequence (Q9UPY5 1-501): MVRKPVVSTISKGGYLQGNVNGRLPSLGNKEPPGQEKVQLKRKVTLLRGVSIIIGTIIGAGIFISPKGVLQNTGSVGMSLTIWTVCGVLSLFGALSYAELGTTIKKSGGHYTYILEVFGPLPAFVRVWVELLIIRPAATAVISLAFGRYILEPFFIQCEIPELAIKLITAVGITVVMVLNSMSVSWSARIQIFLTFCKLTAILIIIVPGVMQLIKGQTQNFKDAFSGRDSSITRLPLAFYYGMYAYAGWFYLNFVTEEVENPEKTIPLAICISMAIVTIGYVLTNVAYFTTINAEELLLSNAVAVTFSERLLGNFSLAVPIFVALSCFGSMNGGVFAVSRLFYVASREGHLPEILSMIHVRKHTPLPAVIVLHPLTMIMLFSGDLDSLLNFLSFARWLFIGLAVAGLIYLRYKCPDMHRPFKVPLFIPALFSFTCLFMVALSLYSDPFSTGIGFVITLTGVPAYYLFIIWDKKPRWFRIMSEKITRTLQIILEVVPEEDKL
T1 sequence (P08195 1-529 partner): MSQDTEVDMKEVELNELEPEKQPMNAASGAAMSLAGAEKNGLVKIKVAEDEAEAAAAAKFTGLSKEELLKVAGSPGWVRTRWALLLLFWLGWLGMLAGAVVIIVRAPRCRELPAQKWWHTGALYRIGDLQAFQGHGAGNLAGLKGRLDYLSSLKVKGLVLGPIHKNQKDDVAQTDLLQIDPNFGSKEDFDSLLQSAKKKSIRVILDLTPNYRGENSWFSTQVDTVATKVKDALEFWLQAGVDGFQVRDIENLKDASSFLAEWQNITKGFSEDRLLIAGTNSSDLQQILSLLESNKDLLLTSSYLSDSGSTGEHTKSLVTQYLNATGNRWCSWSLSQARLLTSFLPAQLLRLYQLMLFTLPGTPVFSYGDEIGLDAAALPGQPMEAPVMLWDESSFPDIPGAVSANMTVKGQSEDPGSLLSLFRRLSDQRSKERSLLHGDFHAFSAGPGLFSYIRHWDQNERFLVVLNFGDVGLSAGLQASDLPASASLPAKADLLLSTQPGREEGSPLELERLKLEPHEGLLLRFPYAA
Source text: SLC7A11 was 5.5-fold enriched in SEPHS2-sensitive cell lines (FIG. 4C).

GPX4 and SEPHS2 = assay: selenoprotein expression after selenite supplementation; conditions: supplementation with selenite to media

O=[Se](O)O [selenite]
growth with selenite in conjunction with SEPHS2 KO (U251 GBM cell line): Synergy | toxicity of high-dose selenite after knockout of SLC7A11 (U251 cells): complete rescue | total intracellular selenium due to supplemented selenite (SLC7A11): prevented any increase | expression of selenoproteins GPX4 and SEPHS2 (GPX4 and SEPHS2): increased expression

Source: patent US20200096789A1, “Optical Aid” (priority 2017, published 2020)
